{"source": "patent US20200286590A1", "about": "“SYSTEMS, APPARATUS, AND METHODS FOR GENERATING AND ANALYZING RESISTOME PROFILES” (priority 2014, published 2020)", "key": {"[1]": {"test_system": "K. pneumoniae isolate 850707", "experiment": "Minimum inhibitory concentration (MIC) results, isolate 850707", "assay_type": "cell-based", "settings": "for MIC: Klebsiella pneumoniae, read-out: MIC Value", "text": "(§1) The ability to view additional or varied information may be set by a user as a preference on a customized basis, or the information may be hidden and made available based on a request or selection from a user according to some embodiments. For example, a display interface may be configured such that the user can make a selection on a short form name or symbol to expand a field or open a new window on the display that provides detailed antibiotic resistance data or other diagnostically useful information for a subject sample. For example, in TABLE 17, the differences in minimum inhibitory concentration (MIC) results for two isolate species are provided.\n(§2) In TABLE 18, the isolates are numbered and linked to an isolate species (K. pneumoniae); resistome profiles including the species (K1), phenotype (CRE), genotype (IMP and C1), and profile uniqueness identifiers indicating sequential unique patterns compared to an associated database (1-1 and 2-1, respectively); Acuitas MDRO Gene Test results (IMP(A) and CTX-M(A)); and reported genotypes listed in rank order of clinical importance (IMP-26, CTX-M-15, and SHV-28(u), and IMP-4, CTX-M-15, SHV-1(b), and TEM, respectively). The trailing “1s” in the assigned resistome profiles (i.e., the second digit of each profile uniqueness identifier) reflect the first occurrences of these patterns/profiles derived based on data collected from subject sample measurements. In this example, the tests are not designed to detect SHV, TEM, ACT/MIR, CMY-2, DHA-1, ACT-16, or VEB-1."}, "[2]": {"test_system": "K. pneumoniae isolate 850793", "experiment": "Minimum inhibitory concentration (MIC) results, isolate 850793", "assay_type": "cell-based", "settings": "for MIC: Klebsiella pneumoniae, read-out: MIC Value", "text": "as §1, §2"}, "[3]": {"test_system": "D-alanyl-D-serine variation of NAM/NAG-peptide subunits", "settings": "D-alanyl-D-serine versus D-alanyl-D-alanine; cited from earlier work"}, "[4]": {"test_system": "D-alanyl-D-lactate variation of NAM/NAG-peptide subunits", "settings": "D-alanyl-D-lactate versus D-alanyl-D-alanine; cited from earlier work"}, "[5]": {"test_system": "carbapenem-resistant Enterobacteriaceae", "settings": "CRE, cited from earlier work"}, "[6]": {"test_system": "cephalosporin-resistant (3rd or 4th generation) Gram-negative bacillus", "settings": "CephR-GNB; Revised (M100-S20); cited from earlier work"}, "[7]": {"settings": "Isolate No. 850707, K. pneumoniae, IMP-26, CTX-M-15, SHV-28(u)"}, "[8]": {"settings": "Isolate No. 850793, K. pneumoniae, IMP-4, CTX-M-15, SHV-1(b), TEM"}}, "note": "Like-named read-outs stand apart in the source and are kept apart here."}
{"compound": "C[C@H]1COc2c(N3CCN(C)CC3)c(F)cc3c(=O)c(C(=O)O)cn1c23", "note": "[Levofloxacin]", "values": [{"measurement": "MIC", "setting": "[1]; [7]", "result": 1, "unit": "µg/mL"}, {"measurement": "MIC", "setting": "[2]; [8]", "result": 0.5, "unit": "µg/mL"}]}
{"compound": "CN[C@H](CC(C)C)C(=O)N[C@H]1C(=O)N[C@@H](CC(N)=O)C(=O)N[C@H]2C(=O)N[C@H]3C(=O)N[C@H](C(=O)N[C@H](C(=O)O)c4cc(O)cc(O)c4-c4cc3ccc4O)[C@H](O)c3ccc(c(Cl)c3)Oc3cc2cc(c3O[C@@H]2O[C@H](CO)[C@@H](O)[C@H](O)[C@H]2O[C@H]2C[C@](C)(N)[C@H](O)[C@H](C)O2)Oc2ccc(cc2Cl)[C@H]1O", "note": "[vancomycin]", "values": [{"measurement": "loss of affinity between vancomycin and the peptide", "setting": "[3]", "result": "six-fold"}, {"measurement": "decrease in affinity", "setting": "[4]", "result": 1000, "unit": "fold"}]}
{"compound": "C[C@@H](O)[C@H]1C(=O)N2C(C(=O)O)=C(S[C@@H]3CN[C@H](CNS(N)(=O)=O)C3)[C@H](C)[C@H]12", "note": "[Doripenem]", "values": [{"measurement": "MIC breakpoint, Intermediate", "setting": "[5]; Current Breakpoints (M100-S22)", "result": 2, "unit": "µg/mL"}, {"measurement": "MIC breakpoint, Resistant", "setting": "[5]; Current Breakpoints (M100-S22)", "result": "≥4", "unit": "µg/mL"}, {"measurement": "MIC breakpoint, Susceptible", "setting": "[5]; Current Breakpoints (M100-S22)", "result": "≤1", "unit": "µg/mL"}, {"measurement": "MIC", "setting": "[1]; [7]", "result": 32, "unit": "µg/mL"}, {"measurement": "MIC", "setting": "[2]; [8]", "result": 4, "unit": "µg/mL"}]}
{"compound": "Colistin/TWEEN", "values": [{"measurement": "MIC Value", "setting": "[1]; [7]", "result": 0.12, "unit": "µg/mL"}, {"measurement": "MIC Value", "setting": "[2]; [8]", "result": 0.12, "unit": "µg/mL"}]}
{"compound": "CO/N=C(\\C(=O)N[C@@H]1C(=O)N2C(C(=O)[O-])=C(C[N+]3(C)CCCC3)CS[C@H]12)c1csc(N)n1", "note": "[Cefepime]", "values": [{"measurement": "MIC breakpoint, Intermediate", "setting": "[6]", "result": 16, "unit": "µg/mL"}, {"measurement": "MIC breakpoint, Resistant", "setting": "[6]", "result": "≥32", "unit": "µg/mL"}, {"measurement": "MIC breakpoint, Susceptible", "setting": "[6]", "result": "≤8", "unit": "µg/mL"}, {"measurement": "MIC", "setting": "[1]; [7]", "result": 16, "unit": "µg/mL"}, {"measurement": "MIC", "setting": "[2]; [8]", "result": 16, "unit": "µg/mL"}]}
{"compound": "NCC[C@H](O)C(=O)N[C@@H]1C[C@H](N)[C@@H](O[C@H]2O[C@H](CN)[C@@H](O)[C@H](O)[C@H]2O)[C@H](O)[C@H]1O[C@H]1O[C@H](CO)[C@@H](O)[C@H](N)[C@H]1O", "note": "[Amikacin]", "values": [{"measurement": "MIC", "setting": "[1]; [7]", "result": 32, "unit": "µg/mL"}, {"measurement": "MIC", "setting": "[2]; [8]", "result": 32, "unit": "µg/mL"}]}
{"compound": "CO/N=C(\\C(=O)N[C@@H]1C(=O)N2C(C(=O)O)=C(CSc3nc(=O)c(=O)[nH]n3C)CS[C@H]12)c1csc(N)n1", "note": "[Ceftriaxone]", "values": [{"measurement": "MIC breakpoint, Intermediate", "setting": "[5]; Revised (M100-S20)", "result": 2, "unit": "µg/mL"}, {"measurement": "MIC breakpoint, Resistant", "setting": "[5]; Revised (M100-S20)", "result": "≥4", "unit": "µg/mL"}, {"measurement": "MIC breakpoint, Susceptible", "setting": "[5]; Revised (M100-S20)", "result": "≤1", "unit": "µg/mL"}]}
{"compound": "CN(C)c1cc(NC(=O)CNC(C)(C)C)c(O)c2c1C[C@H]1C[C@H]3[C@H](N(C)C)C(O)=C(C(N)=O)C(=O)[C@@]3(O)C(O)=C1C2=O", "note": "[Tigecycline]", "values": [{"measurement": "MIC", "setting": "[1]", "result": 2, "unit": "µg/mL"}, {"measurement": "MIC", "setting": "[2]", "result": 1, "unit": "µg/mL"}]}
{"compound": "C[C@@H](O)[C@H]1C(=O)N2C(C(=O)O)=C(S[C@@H]3CN[C@H](C(=O)N(C)C)C3)[C@H](C)[C@H]12", "note": "[Meropenem]", "values": [{"measurement": "MIC breakpoint, Intermediate", "setting": "[5]; Current Breakpoints (M100-S22)", "result": 2, "unit": "µg/mL"}, {"measurement": "MIC breakpoint, Resistant", "setting": "[5]; Current Breakpoints (M100-S22)", "result": "≥4", "unit": "µg/mL"}, {"measurement": "MIC breakpoint, Susceptible", "setting": "[5]; Current Breakpoints (M100-S22)", "result": "≤1", "unit": "µg/mL"}, {"measurement": "MIC", "setting": "[1]; [7]", "result": 32, "unit": "µg/mL"}, {"measurement": "MIC", "setting": "[2]; [8]", "result": 8, "unit": "µg/mL"}]}
{"compound": "C[C@@H](O)[C@H]1C(=O)N2C(C(=O)O)=C(S[C@@H]3CN[C@H](C(=O)Nc4cccc(C(=O)O)c4)C3)[C@H](C)[C@H]12", "note": "[Ertapenem]", "values": [{"measurement": "MIC breakpoint, Intermediate", "setting": "[5]; Current Breakpoints (M100-S22)", "result": 1, "unit": "µg/mL"}, {"measurement": "MIC breakpoint, Resistant", "setting": "[5]; Current Breakpoints (M100-S22)", "result": "≥2", "unit": "µg/mL"}, {"measurement": "MIC breakpoint, Susceptible", "setting": "[5]; Current Breakpoints (M100-S22)", "result": "≤0.5", "unit": "µg/mL"}, {"measurement": "MIC", "setting": "[1]; [7]", "result": 6, "unit": "µg/mL"}, {"measurement": "MIC", "setting": "[2]; [8]", "result": 1, "unit": "µg/mL"}]}
{"compound": "CC(C)(O/N=C(\\C(=O)N[C@@H]1C(=O)N2C(C(=O)[O-])=C(C[n+]3ccccc3)CS[C@H]12)c1csc(N)n1)C(=O)O", "note": "[Ceftazidime]", "values": [{"measurement": "MIC breakpoint, Intermediate", "setting": "[6]", "result": 8, "unit": "µg/mL"}, {"measurement": "MIC breakpoint, Resistant", "setting": "[6]", "result": "≥16", "unit": "µg/mL"}, {"measurement": "MIC breakpoint, Susceptible", "setting": "[6]", "result": "≤4", "unit": "µg/mL"}, {"measurement": "MIC breakpoint, Intermediate", "setting": "[5]; Revised (M100-S20)", "result": 8, "unit": "µg/mL"}, {"measurement": "MIC breakpoint, Resistant", "setting": "[5]; Revised (M100-S20)", "result": "≥16", "unit": "µg/mL"}, {"measurement": "MIC breakpoint, Susceptible", "setting": "[5]; Revised (M100-S20)", "result": "≤4", "unit": "µg/mL"}, {"measurement": "MIC", "setting": "[1]; [7]", "result": 16, "unit": "µg/mL"}, {"measurement": "MIC", "setting": "[2]; [8]", "result": 128, "unit": "µg/mL"}]}
{"compound": "C[C@@H](O)[C@H]1C(=O)N2C(C(=O)O)=C(SCCN=CN)C[C@H]12", "note": "[Imipenem]", "values": [{"measurement": "MIC", "setting": "[1]; [7]", "result": 2, "unit": "µg/mL"}, {"measurement": "MIC", "setting": "[2]; [8]", "result": 8, "unit": "µg/mL"}]}
{"compound": "CC1(C)S[C@@H]2[C@H](NC(=O)[C@H](N)c3ccccc3)C(=O)N2[C@H]1C(=O)O", "note": "[Ampicillin]", "values": [{"measurement": "MIC", "setting": "[1]; [7]", "result": 32, "unit": "µg/mL"}, {"measurement": "MIC", "setting": "[2]; [8]", "result": 32, "unit": "µg/mL"}]}
{"compound": "CO/N=C(\\C(=O)N[C@@H]1C(=O)N2C(C(=O)O)=C(COC(C)=O)CS[C@H]12)c1csc(N)n1", "note": "[Cefotaxime]", "values": [{"measurement": "MIC breakpoint, Intermediate", "setting": "[5]; Revised (M100-S20)", "result": 2, "unit": "µg/mL"}, {"measurement": "MIC breakpoint, Resistant", "setting": "[5]; Revised (M100-S20)", "result": "≥4", "unit": "µg/mL"}, {"measurement": "MIC breakpoint, Susceptible", "setting": "[5]; Revised (M100-S20)", "result": "≤1", "unit": "µg/mL"}]}
